Results: PMC4235214 (mBio, 2014)
Like-named read-outs stand apart in the source and are kept apart here.

How the values were obtained:
EHEC = type: cell-based, enterohemorrhagic Escherichia coli (EHEC) O157:H7
S. Typhimurium = type: cell-based, Salmonella enterica serovar Typhimurium; settings: J774 macrophages, 5 nM
[1] = system: S. Typhimurium strain SL1344; parameters: species or system mice (BALB/c); settings: mouse, in vivo
EAEC O104:H4 [2] = type: cell-based, enteroaggregative E. coli (EAEC); settings: EAEC O104:H4, 5 nM, 24 h
UPEC = type: cell-based, uropathogenic E. coli (UPEC); settings: for reduction of biofilm formation: 24 h
[3] = system: Pseudomonas and Klebsiella isolates; type: cell-based
EAEC O104:H4 [4] = type: cell-based, enteroaggregative E. coli (EAEC)
[5] = 5, 20, and 80 mg/kg daily for 14 days
QseC = settings: cited from earlier work
in vivo = settings: female, CD-1, mouse
hERG channel = hERG channel (Homo sapiens, UniProt Q12809); assay: in vitro
Chain of hERG channel (Q12809 whole entry): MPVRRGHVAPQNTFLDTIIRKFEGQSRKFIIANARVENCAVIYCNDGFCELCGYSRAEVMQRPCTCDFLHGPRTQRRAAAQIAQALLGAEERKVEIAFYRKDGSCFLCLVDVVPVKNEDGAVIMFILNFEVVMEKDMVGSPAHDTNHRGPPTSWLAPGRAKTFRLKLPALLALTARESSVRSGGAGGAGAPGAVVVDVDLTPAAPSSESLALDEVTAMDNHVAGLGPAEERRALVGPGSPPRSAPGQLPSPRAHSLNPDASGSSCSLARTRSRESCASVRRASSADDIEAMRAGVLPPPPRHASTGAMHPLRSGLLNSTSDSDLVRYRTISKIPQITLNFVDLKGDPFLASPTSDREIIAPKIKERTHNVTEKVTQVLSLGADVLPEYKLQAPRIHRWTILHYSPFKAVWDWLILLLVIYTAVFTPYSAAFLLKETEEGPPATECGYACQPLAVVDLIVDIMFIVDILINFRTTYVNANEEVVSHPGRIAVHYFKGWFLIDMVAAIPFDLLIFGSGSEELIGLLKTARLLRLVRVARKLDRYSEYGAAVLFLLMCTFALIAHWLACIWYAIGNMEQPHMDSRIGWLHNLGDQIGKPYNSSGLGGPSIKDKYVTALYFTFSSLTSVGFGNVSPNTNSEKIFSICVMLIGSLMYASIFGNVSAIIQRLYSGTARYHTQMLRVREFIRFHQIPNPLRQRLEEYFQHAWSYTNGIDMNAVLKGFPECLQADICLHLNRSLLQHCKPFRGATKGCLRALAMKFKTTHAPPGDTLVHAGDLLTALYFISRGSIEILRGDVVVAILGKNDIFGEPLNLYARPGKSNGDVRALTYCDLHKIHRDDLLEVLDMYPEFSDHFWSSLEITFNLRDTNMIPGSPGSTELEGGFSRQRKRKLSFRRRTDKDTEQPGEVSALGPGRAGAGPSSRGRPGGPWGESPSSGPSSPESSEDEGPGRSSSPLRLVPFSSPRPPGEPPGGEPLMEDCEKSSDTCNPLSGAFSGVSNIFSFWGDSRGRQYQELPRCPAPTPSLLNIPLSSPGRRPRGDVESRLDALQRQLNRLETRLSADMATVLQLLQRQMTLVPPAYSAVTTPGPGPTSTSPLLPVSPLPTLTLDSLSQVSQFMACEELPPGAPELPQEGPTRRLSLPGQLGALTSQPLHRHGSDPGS

[6] = mouse, in vivo; cited from earlier work

O=C(Nc1ccccc1)Nc1ccc(NS(=O)(=O)c2ccccc2)cc1 [CF252, N-(4-(3-Phenylureido)phenyl)benzenesulfonamide]
expression of ler and stx2a (EHEC): reversed the antagonist behavior

O=C(Nc1ccccc1)Nc1ccc(S(=O)(=O)NC2CCCCC2)cc1 [CF283, N-Cyclohexyl-4-(3-phenylureido)benzenesulfonamide]
expression of ler and stx2a (EHEC): significantly reduced

COc1ccccc1NC(=O)Nc1ccc(S(=O)(=O)Nc2ccccc2)cc1 [CF287, 4-(3-(2-Methoxyphenyl)ureido)-N-phenylbenzenesulfonamide]
expression of ler and stx2a (EHEC): lost the antagonist activity

O=C(Nc1ccc(S(=O)(=O)Nc2ccccc2)cc1)Nc1nncs1 [CF290, 4-(3-(1,3,4-Thiadiazol-2-yl)ureido)-N-phenylbenzenesulfonamide]
increase of ler (EHEC): 2 fold

O=S(=O)(Nc1ccccc1)c1ccc(NC(=S)Nc2ccccc2)cc1 [LED209, N-phenyl-4-(3-phenylthioureido)benzenesulfonamide]
expression of key virulence genes (ler, tir, stx2a) (EHEC): phenocopied a qseC mutation
expression of ler and stx2a (EHEC): works as well as all of our previous LED209 batches
expression of the virulence genes (LEE: ler, tir) (EHEC): nonresponsive
expression of the virulence genes (ler) (EHEC): did not respond
decrease of survival of S. Typhimurium within macrophages (S. Typhimurium): 4 logs
mice remained alive [1]: 43%
mice remained alive ([1]; 20 mg/kg): 60%
mice survived ([1]; po, 20 mg/kg): 50%
reduction of biofilm formation (EAEC O104:H4 [2]): 37%
reduction in biofilm formation (UPEC; UPEC clinical isolate 6): 43%
reduction in biofilm formation (UPEC; UPEC clinical isolate 8): 48%
reduction in biofilm formation (UPEC; UPEC clinical isolate 25): 43%
reduction of biofilm formation (UPEC; UPEC strain CFT073, 5 nM, not significant): 8%
reduction of biofilm formation (UPEC; UPEC strain UTI89, 5 nM): 35%
reduction of biofilm formation ([3]; clinical isolate 18): 26%
reduction of biofilm formation ([3]; clinical isolate 20): 21%
expression of stx2a (EAEC O104:H4 [4]): significantly reduced
penetration of the blood-brain barrier (20 mg/kg): limited
peak concentrations in plasma (at each oral dose): high
exposures versus dose (oral doses above 80 mg/kg): increased less than proportionally
oral bioavailability (oral gavage, mice): good
pharmacokinetics by the oral route (oral gavage, mice): nonlinear
liver toxicity [5]: no liver toxicity
toxicity [5]: did not present any toxicity
QseC binding to its signals and autophosphorylation (QseC): preventing binding to its signals and consequently its autophosphorylation
half-life (in vivo): 0.667 to 1.67 h
inhibition at 10 µM (hERG channel): 4%
pharmacokinetics via the intravenous route [6]: linear
